This series can be described thus: NIR absorption and fluorescence spectra of indocyanine green. In kind it is physicochemical. The source says:
Many NIR fluorescence compounds are potential candidates for the present application. One of examples, indocyanine green (ICG), because of its low toxicity, has been used in many clinical applications. Indocyanine green, molecular weight 775, is a tricarbocyanine type of green dye. FIG. 2 and FIG. 3 show the NIR absorption, 650-850 nm, and NIR fluorescence spectra, 650-900 nm, of ICG, respectively. ICG has little absorption in the visible light. However, it is easily excited by an NIR light source with high quantum efficiency. Diode laser light sources with a wavelength between […] is suitable for ICG excitation. The fluorescent peak has a large red shifted relatively to the excitation wavelength. The fluorescence peak at 810 nm is within the NIR window for tissue optics. Due to ICG has a very large fluorescent quantum yield and a distinct peak at 810 nm, a sensitivity of 0.5 μg/ml can be achieved easily. FIG. 3(a), (b), and (c) show the fluorescence spectra of ICG in blood samples with various concentration between 0.5-500 μg/ml

The text below walks through data of patent US20050065436A1, “Rapid and non-invasive optical detection of internal bleeding” (priority 2003, published 2005).

As for `CC1(C)C(/C=C/C=C/C=C/C=C2\N(CCCCS(=O)(=O)O)c3ccc4ccccc4c3C2(C)C)=[N+](CCCCS(=O)(=O)[O-])c2ccc3ccccc3c21` [ICG, Indocyanine green], the NIR fluorescence spectra (FIG. 3) is reported as 650-900 nm. Further, the fluorescence peak (FIG. 3, concentrations 0.5-500 μg/ml) turned out to be 810 nm. The NIR absorption (absorption spectrum, FIG. 2) is listed as 650-850 nm.
